# Assay results: patent US20050171037A1, “Therapeutic combinations” (Agouron Pharmaceuticals, Inc., priority 2004, published 2005)
# Where two headings read alike, the source gives them in different places.
# Tests used:
# [1] = Compound A pharmacokinetics after oral administration of a single dose with and without ritonavir, human subjects, fed; assay type: in vivo; settings: for Ae % (drug recovered unchanged in urine, percent of administered dose): arithmetic mean
# [2] = as above; assay type: in vivo; settings: for half-life / Cmax / AUC / Tmax: plasma, po; for half-life / Ae % (drug recovered unchanged in urine, percent of administered dose): arithmetic mean; for Cmax / AUC: geometric mean; for AUC: read-out: AUC (area under the concentration-time curve from time 0 to infinity); for Tmax: median
# Procedure: Nos. 11/008325, filed Dec. 8, 2004, and 60/591,351, filed Jul. 26, 2004, all of which are hereby incorporated by reference for this purpose. A total of 30 human subjects were administered a single 100 mg, 300 mg, 800 mg, 1000 mg, 1500 mg, 2000 mg, or 3000 mg dose of a spray-dried composition comprising 90 wt % amorphous Compound A and 10 wt % hydroxypropyl methyl cellulose acetate succinate (HPMCAS), under fed conditions according to the schedule found in Table I. […] Each plasma sample was analyzed for the presence of Compound A and the following pharmacokinetic parameters for Compound A were determined for each subject: area under the concentration-time curve from time 0 extrapolated to infinity (AUC), maximum observed plasma concentration (Cmax), time to first occurrence of Cmax (Tmax), terminal phase plasma half-life (t1/2), and cumulative amount of drug recovered unchanged in the urine expressed as a percentage of administered dose (Ae %). The mean to t1/2 value for the 100 mg dose group was calculated from three subjects. The t1/2 values for three subjects at this dose level were deemed unreliable owing to poor estimates of the terminal phase rate constant from regressions (r^2 values less than 0.9) and, therefore, were not included in the summary statistics. Similarly, the th for one subject in the 800 mg dose group was deemed unreliable owing to poor estimate of the terminal phase rate constant from regression (r^2 values less than 0.9) and therefore was not included in the summary statistics.
# [3] = single oral dose 400 mg + ritonavir (100 mg every 12 hours for 3 doses)
# [4] = single oral dose 800 mg + ritonavir (100 mg every 12 hours for 3 doses)
# [5] = 100 mg, single oral dose 100 mg, without ritonavir
# [6] = 300 mg, single oral dose 300 mg, without ritonavir
# [7] = 800 mg, single oral dose 800 mg, without ritonavir
# [8] = 1000 mg, single oral dose 1000 mg, without ritonavir
# [9] = 1500 mg, single oral dose 1500 mg, without ritonavir
# [10] = 2000 mg, single oral dose 2000 mg, without ritonavir
# [11] = 3000 mg, single oral dose 3000 mg, without ritonavir
smiles,measurement,setting,value
"C=CCNC(=O)[C@H]1N(C(=O)[C@@H](O)[C@H](Cc2ccccc2)NC(=O)c2cccc(O)c2C)CSC1(C)C [Compound A, (4R)-N-allyl-3-{(2S,3S)-2-hydroxy-3-[(3-hydroxy-2-methylbenzoyl)amino]-4-phenylbutanoyl}-5,5-dimethyl-1,3-thiazolidine-4-carboxamide]",AUC,"[1]; plasma, single oral dose 400 mg + ritonavir (100 mg every 12 hours for 3 doses), geometric mean, read-out: AUC (area under the concentration-time curve from time 0 to infinity)",42500 ng·h/mL
same,"Ae % (drug recovered unchanged in urine, percent of administered dose)",[1]; [3],20.4%
same,"Ae % (drug recovered unchanged in urine, percent of administered dose)",[1]; [4],19.4%
same,AUC (area under the concentration-time curve from time 0 to infinity),"[1]; single oral dose 800 mg + ritonavir (100 mg every 12 hours for 3 doses), geometric mean",71400 ng·h/mL
same,half-life,"[2]; 100 mg, single oral dose 100 mg, without ritonavir, N = 3, read-out: t½ (terminal phase plasma half-life) (converted)",8.63 h
same,Cmax,[2]; [5],160 ng/mL
same,AUC,[2]; [5],740 ng·h/mL
same,Tmax,[2]; [5],3 h
same,half-life,"[2]; 300 mg, single oral dose 300 mg, without ritonavir, read-out: t½ (terminal phase plasma half-life) (converted)",8.17 h
same,Cmax,[2]; [6],720 ng/mL
same,AUC,[2]; [6],3560 ng·h/mL
same,Tmax,[2]; [6],2.5 h
same,half-life,"[2]; 800 mg, single oral dose 800 mg, without ritonavir, N = 5, read-out: t½ (terminal phase plasma half-life) (converted)",11.7 h
same,Cmax,[2]; [7],3120 ng/mL
same,AUC,[2]; [7],15800 ng·h/mL
same,Tmax,[2]; [7],3 h
same,half-life,"[2]; 1000 mg, single oral dose 1000 mg, without ritonavir, read-out: t½ (terminal phase plasma half-life) (converted)",7.28 h
same,Cmax,[2]; [8],3350 ng/mL
same,AUC,[2]; [8],16900 ng·h/mL
same,Tmax,[2]; [8],3 h
same,half-life,"[2]; 1500 mg, single oral dose 1500 mg, without ritonavir, read-out: t½ (terminal phase plasma half-life) (converted)",9.17 h
same,Cmax,[2]; [9],7040 ng/mL
same,AUC,[2]; [9],41900 ng·h/mL
same,Tmax,[2]; [9],4 h
same,half-life,"[2]; 2000 mg, single oral dose 2000 mg, without ritonavir, read-out: t½ (terminal phase plasma half-life) (converted)",10.4 h
same,Cmax,[2]; [10],7490 ng/mL
same,AUC,[2]; [10],44200 ng·h/mL
same,Tmax,[2]; [10],2 h
same,half-life,"[2]; 3000 mg, single oral dose 3000 mg, without ritonavir, read-out: t½ (terminal phase plasma half-life) (converted)",7.6 h
same,Cmax,[2]; [11],11200 ng/mL
same,AUC,[2]; [11],86400 ng·h/mL
same,Tmax,[2]; [11],4 h
same,half-life,"[2]; single oral dose 400 mg + ritonavir (100 mg every 12 hours for 3 doses), read-out: t½ (terminal phase plasma half-life) (converted)",8.56 h
same,Cmax,[2]; [3],5210 ng/mL
same,Tmax,[2]; [3],3.51 h
same,half-life,"[2]; single oral dose 800 mg + ritonavir (100 mg every 12 hours for 3 doses), read-out: t½ (terminal phase plasma half-life) (converted)",8.39 h
same,Cmax,[2]; [4],7350 ng/mL
same,Tmax,[2]; [4],4 h
same,"Ae % (drug recovered unchanged in urine, percent of administered dose)","[2]; single oral dose 100 mg, without ritonavir",1.34%
same,"Ae % (drug recovered unchanged in urine, percent of administered dose)","[2]; single oral dose 300 mg, without ritonavir",2.04%
same,"Ae % (drug recovered unchanged in urine, percent of administered dose)","[2]; single oral dose 800 mg, without ritonavir",4.00%
same,"Ae % (drug recovered unchanged in urine, percent of administered dose)","[2]; single oral dose 1000 mg, without ritonavir",4.21%
same,"Ae % (drug recovered unchanged in urine, percent of administered dose)","[2]; single oral dose 2000 mg, without ritonavir",7.92%
same,"Ae % (drug recovered unchanged in urine, percent of administered dose)","[2]; single oral dose 3000 mg, without ritonavir",9.05%
